Data: patent US20060264408A1, “Sod minic multifunctional compounds for treating inflammatory bowel disease” (priority 2003, published 2006)

System: acetic acid-induced colitis
Experiment: acetic acid-induced colitis in rats: oxidative stress markers (PCC, TBARS) in colonic tissue
Conditions: for activity compared with 5-ASA and lipoic acid: acetic acid-induced rat colitis; for TBARS (thiobarbituric acid reactive substrates), Pre-treatment / PCC (tissue protein carbonyl content), Pre-treatment: administered 10 minutes before induction of colitis; for TBARS (thiobarbituric acid reactive substrates), Pre-treatment / PCC (tissue protein carbonyl content), Pre-treatment / TBARS (thiobarbituric acid reactive substrates), Post-treatment / PCC (tissue protein carbonyl content), Post-treatment: 5-ASA 100 mg/kg, LA 50 mg/kg, compounds 1 and 7 50 mg/kg, sacrificed 24 hr post induction; for TBARS (thiobarbituric acid reactive substrates), Pre-treatment: control 18 ± 4, AA alone 187 ± 14; for PCC (tissue protein carbonyl content), Pre-treatment: control 261 ± 27, AA alone 1687 ± 98; for TBARS (thiobarbituric acid reactive substrates), Post-treatment / PCC (tissue protein carbonyl content), Post-treatment: administered 30 minutes after induction of colitis; for TBARS (thiobarbituric acid reactive substrates), Post-treatment: control 15 ± 3, AA alone 163 ± 14; for PCC (tissue protein carbonyl content), Post-treatment: control 273 ± 21, AA alone 1587 ± 95; for treated rats compared with control healthy rats (PCC, TBARS): results of the table, P<0.05

| Compound | activity compared with 5-ASA and lipoic acid | TBARS (thiobarbituric acid reactive substrates), Pre-treatment | PCC (tissue protein carbonyl content), Pre-treatment | TBARS (thiobarbituric acid reactive substrates), Post-treatment | PCC (tissue protein carbonyl content), Post-treatment | treated rats compared with control healthy rats (PCC, TBARS) |
| --- | --- | --- | --- | --- | --- | --- |
| O=C(O)CCCC[C@@H]1CCSS1 (racemic) [lipoic acid, reference compound] | as effective as 5-ASA | 73 ± 8 | 867 ± 73 | 64 ± 8 | 713 ± 31 |  |
| Cc1cc(O)c(C(=O)O)cc1/N=N\c1ccc2c(c1)C(C)(C)N([O])C2(C)C [Compound 1] | more active than either of LA or ASA used separately or even simultaneously | 27 ± 4 | 293 ± 33 | 18 ± 3 | 278 ± 32 | statistically indifferent from control healthy rats |
| Nc1ccc(O)c(C(=O)O)c1 [Compound 5-ASA, 5-aminosalicylic acid, reference compound] |  | 89 ± 9 | 959 ± 48 | 74 ± 9 | 873 ± 79 |  |
| O=C(O)c1cc2[nH]c(CCCCC3CCSS3)nc2cc1O (stereo not drawn) [Compound 7] | more active than either of LA or ASA used separately or even simultaneously | 21 ± 3 | 284 ± 26 | 19 ± 2 | 269 ± 28 | statistically indifferent from control healthy rats |
